Source: patent publication US20190083573A1, “DESIGNER RECEPTORS FOR […] AND METHODS OF USE THEREOF” (The Board of Trustees of the Leland Stanford Junior …, priority 2016, published 2019)

How the values were obtained:
[1] = Effect of other analgesics on the light intensity required for a pain-related response (optical withdrawal testing); type: in vivo; conditions: mice, blinded experiments
Method: (§1) In mice that were co-injected with AAV6-hSyn-HA-hM4D-IRES-mCitrine and AAV6-hSyn-ChR2-YFP optical withdrawal testing was performed 2-3 weeks post injection. Mice were placed on a glass surface and allowed to habituate for 30-45 minutes. A 473 nm laser was connected to a fiber optic cable, and used to illuminate the paw regions of the mice at varying light intensities. Mice responded to the blue light with characteristic pain-signs, engaging in paw withdrawal, shaking, and licking. […] This value was termed the ‘optical withdrawal threshold’. Due to variation in the effective illumination spot, the optical withdrawal threshold was measured in total illuminated output (in mW), rather than in mW/mm^2. Mice were then briefly anesthetized with isoflurane, and injected intra-peritoneally with 100 μl of clozapine-N-oxide (for an effective dose of 10 mg/kg) or 100 μl of saline. Post-injection testing was done in a blinded manner, with optical withdrawal thresholds collected at 60-90 minutes. Data were then unblinded, and statistical significance assessed using the Student's t-test.

hM4D(Gi) [2] = molecular target: T1, hM4D(Gi) (Homo sapiens, UniProt P08173, A203G/Y113C); assay: Mechanical withdrawal testing (von Frey) after intraperitoneal CNO in mice expressing hM4D; type: in vivo; conditions: mice expressing hM4D receptor, 10 mg/kg CNO i.p., 60 min after administration, n=10 paws
T1 construct: HA (N); expressed in transfected cells; host or cells: mouse sciatic-nerve primary afferent nociceptors, transduced in vivo with AAV6 under the hSyn promoter
T1 sequence (P08173 1-479 Y113C/A203G): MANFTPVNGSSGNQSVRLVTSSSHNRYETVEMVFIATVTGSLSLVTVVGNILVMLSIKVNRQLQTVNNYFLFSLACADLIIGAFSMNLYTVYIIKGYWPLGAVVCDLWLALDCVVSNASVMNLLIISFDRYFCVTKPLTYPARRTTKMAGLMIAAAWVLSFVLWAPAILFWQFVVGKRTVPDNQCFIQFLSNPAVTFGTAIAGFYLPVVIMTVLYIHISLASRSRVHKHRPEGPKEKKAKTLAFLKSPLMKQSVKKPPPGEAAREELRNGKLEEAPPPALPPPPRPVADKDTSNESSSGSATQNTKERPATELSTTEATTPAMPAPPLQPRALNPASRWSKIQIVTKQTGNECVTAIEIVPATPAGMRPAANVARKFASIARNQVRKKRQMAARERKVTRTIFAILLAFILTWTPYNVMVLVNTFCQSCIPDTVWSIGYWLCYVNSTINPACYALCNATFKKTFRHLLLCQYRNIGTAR
Method: (§2) 6-8 week old mice were anesthetized with 2% isoflurane, the thigh region was cleaned and sterilized, and then the sciatic nerve was exposed. A 35 G needle was inserted into the nerve, and 2-5 μl of AAV6-hSyn-HA-hM4D-IRES-mCitrine was injected into the nerve, at the rate of 1 μl/min. The cavity was then closed, analgesics were administered, and the recovery of the mice was observed. In some experiments, mice were co-injected with 3 μl of AAV6-hSyn-ChR2-YFP, to allow for analysis of chemogenetic inhibition of optogenetically evoked pain response.
(§3) Mice were tested 3-5 weeks after intraneural injection. Mice were placed on a von Frey apparatus, and allowed to habituate for 1 hour. Mechanical withdrawal thresholds were obtained using the up-down method of testing. Mice were then briefly anesthetized with isoflurane, and injected intra-peritoneally with 100 μl of clozapine-N-oxide (for an effective dose of 10 mg/kg) or 100 μl of saline. Post-injection testing was done in a blinded manner, with mechanical withdrawal thresholds collected at 45-120 minutes post-injection. Data were then unblinded, and statistical significance assessed using the Student's t-test.

hM4D(Gi) [3] = molecular target: T1, hM4D(Gi); assay: Optical withdrawal testing after CNO in hM4D+/ChR2+ mice; type: in vivo; conditions: 10 mg/kg CNO i.p., 60 min after administration, n=5 mice
Method: as §2
as §1, with “Mice were then briefly anesthetized with isoflurane, and injected intra-peritoneally with 100 μl of clozapine-N-oxide (for an effective dose of 10 mg/kg) or 100 μl of saline. Post-injection testing was done in a blinded manner, with optical withdrawal thresholds collected at 60-90 minutes.” left out

hM4D(Gi) [4] = molecular target: T1, hM4D(Gi); assay: Thermal withdrawal testing (Hargreaves) after intraperitoneal CNO in hM4D(Gi) mice; type: in vivo; conditions: 10 mg/kg CNO i.p.
Method: as §2
as §3, with “Hargreaves” for “von Frey”, “Thermal” for “Mechanical”, “latencies” for “thresholds”, “then obtained.” for “obtained using the up-down method of testing.”, “thermal” for “mechanical”

primary afferents [5] = conditions: previously observed optogenetic inhibition of thermal perception; cited from earlier work
primary afferents [6] = conditions: previously reported optogenetic inhibition of primary afferents; cited from earlier work

## NCC1(CC(=O)O)CCCCC1 [gabapentin]
[1]
  effect on optical light sensitivity: strong effects

## C[N+]1([O-])CCN(C2=Nc3cc(Cl)ccc3Nc3ccccc32)CC1 [CNO, clozapine-N-oxide]
hM4D(Gi) [2]
  effect size, mechanical withdrawal thresholds: 1.3
  increase in mechanical withdrawal thresholds: 45%
hM4D(Gi) [3]
  effect size, optical withdrawal threshold: 1.603
  increase in required light intensity to achieve a pain-related response (optical withdrawal threshold): 418%
hM4D(Gi) [4]; 60 minutes post-injection
  effect size, thermal thresholds: 1.903
  increase in thermal thresholds: 61%
hM4D(Gi) [4]; 90 minutes post-injection
  effect size, thermal thresholds: 2.2245
  increase in thermal thresholds: 54%

B1: NpHR: hyperpolarizing light-activatable polypeptide used for optogenetic inhibition (protein, UniProt P15647 1-291, looked up)
Halorhodopsin: MTETLPPVTESAVALQAEVTQRELFEFVLNDPLLASSLYINIALAGLSILLFVFMTRGLDDPRAKLIAVSTILVPVVSIASYTGLASGLTISVLEMPAGHFAEGSSVMLGGEEVDGVVTMWGRYLTWALSTPMILLALGLLAGSNATKLFTAITFDIAMCVTGLAAALTTSSHLMRWFWYAISCACFLVVLYILLVEWAQDAKAAGTADMFNTLKLLTVVMWLGYPIVWALGVEGIAVLPVGVTSWGYSFLDIVAKYIFAFLLLNYLTSNESVVSGSILDVPSASGTPADD
Primary afferents [5]
  effect size of inhibition, thermal perception: 2.05
Primary afferents [6]
  effect size of inhibition, mechanical: 0.802
